Data published in patent US8299040B2, “Methods for treating cancer targeting transglutaminase” (Board of Regents, The University of Texas System, priority 2006, dated 2012).
Entries after “also recorded” stand apart in the source; their conditions may differ.

Assays:
[1] = tested on: NF-κB; test: NF-κB-dependent SEAP reporter gene assay, MCF-7/WT cells; format: cell-based, human
Protocol: (§1) NF-κB dependent reporter gene transcription was analyzed using secretory alkaline phosphatase (SEAP) assay as described previously. Briefly, Panc28 and MCF-7 cells (5×10^5 cells/well in a six-well plate) were transiently transfected by the calcium phosphate method in a 1 ml medium containing 0.5 μg of NF-κB promoter DNA, linked to the heat-stable SEAP gene or with the control plasmid pCMV-FLAG1 DNA. Transfected cells were either left untreated or treated with 1 μM A23187 (Sigma-Aldrich), 1 mM BPA, or 1 nM tumor necrosis factor (TNF)-α (Genentech, South San Francisco, Calif.). Twenty-four hours after treatment, the conditioned medium was removed and assayed for SEAP activity according to the manufacturer's instructions (Clontech Laboratories, Mountain View, Calif.) using an automated microplate reader (PerkinElmer, Wellesley, Mass.). In some experiments cells were co-transfected with dominant-negative construct of IκBα along with NF-κB reporter gene.

[2] = tested on: Panc-28 cells; test: Gemcitabine cytotoxicity, MTS assay, Panc-28; format: cell-based; conditions: Homo sapiens, 72 hours
Protocol: (§2) The number of viable cells remaining after the appropriate treatment was determined by measuring their ability to reduce 3-(4,5-dimethylthiazol-2-yl)-5-(3-carboxymethoxyphenyl)-2H-tetrazolium (MTS) into a soluble formazan in accordance with the manufacturer's instructions. Logarithmically growing cells were plated at 2×10^3 cells per well in 96-well plates and allowed to adhere overnight. […] Each experiment was repeated three times in triplicate. […] Under identical conditions, the cells were trypsinized, and the cell viability was determined with a trypan blue exclusion test to confirm the MTS results.

[3] = tested on: MiaPaCa-2 cells; test: Gemcitabine cytotoxicity, MTS assay, MiaPaCa-2; format: cell-based; conditions: Homo sapiens, MIA PaCa-2, 72 hours
Protocol: as §2

[4] = tested on: BxPC-3 cells; test: Gemcitabine cytotoxicity, MTS assay, BxPC-3; format: cell-based; conditions: Homo sapiens
Protocol: as §2

[5] = tested on: Panc-28 tumors; test: Orthotopic Panc-28 PDAC tumor model: tumor growth and metastasis; format: in vivo, nude (nu/nu) mice; conditions: vs control siRNA group, end of treatment
Text: Panc-28 cells were stably transduced with the firefly luciferase gene as described previously (23). Luciferase-infected Panc-28 cells were harvested from subconfluent cultures after brief exposure to 0.25% trypsin and 0.2% EDTA. Trypsinization was stopped with the medium containing 10% fetal bovine serum. The cells were washed once in serum-free medium and resuspended in PBS. Single cell suspensions with >90% cell viability were used for implantation into the mice. Animals were anesthetized using intraperitoneal injection of 200 μl ketamine (100 mg/kg) and xylazine (5-10 mg/kg). […] The incision was closed in a single layer using sterile surgical Autoclips (Braintree Scientific, Braintree, Mass.), antibacterial mycotic cream was applied to the wound and the animal was placed on a heating pad to maintain body temperature and closely monitored until conscious.
Tumor growth in the mice after tumor-cell implantation was monitored weekly using a noninvasive bioimaging technique. […] Ten minutes after injection, each mouse was placed in the right lateral decubitus position, and bioluminescence was measured using a cryogenically cooled IVIS imaging system coupled with a data acquisition computer running LivingImage software (Xenogen Corp., Alameda, Calif.). […] The signal intensity was quantified as the sum of all detected photons within the region of interest per second per cm^2 per steridian. […]

[6] = tested on: VEGF, pAkt (ser473); test: VEGF and pAkt expression in Panc-28 tumors; parameters: species or system nude mice; conditions: mouse, in vivo
Protocol: Pancreatic tumor tissue samples obtained from control and experimental mice were minced and incubated on ice for 30 min in 0.5 ml of ice-cold lysate buffer (20 mmol/L Tris-HCl, pH 7.4, containing 10% NP-40, 5 mol/L NaCl, 1 mol/L HEPES, 0.5 mol/L EDTA, 0.1 mol/L phenylmethylsulfonyl fluoride, 0.2 mol/L sodium orthovanadate, 1 mol/L NaF, 2 μg/ml aprotinin, and 2 μg/ml leupeptin). The minced tissue was homogenized using a Dounce homogenizer and centrifuged at 16,000×g at 4° C. for 10 min. Fifty micrograms of total protein from each sample was then fractionated using sodium dodecyl sulfate-polyacrylamide gel, electrotransferred onto nitrocellulose membranes, blotted with appropriate antibodies, and antigen antibody reaction detected using enhanced chemiluminescence (Amersham Pharmacia Biotech, Piscataway, N.J.). […] The protein bands obtained were quantified using the AlphaEase FC (Fluor Chem 8900) software program (Alpha Innotech, San Leandro, Calif.).
Tissue microarray slides constructed using 65 formalin-fixed patient tumor samples and 9 normal pancreatic tissue samples were used for this study. […] TG2 protein expression in these tumor samples and xenograft tumors from siRNA treated mice was evaluated immunohistochemically using the Vectastatin Elite ABC immunostaining kit (Vector Laboratories, Burlingame, Calif.) as described previously (12). […]

[7] = tested on: Panc-28 tumors; test: Ki-67 proliferation staining of Panc-28 tumors; parameters: species or system nude mice; conditions: mouse, in vivo
Text: Ki-67 staining was used to evaluate the proliferation index of in vivo growing xenografts and expressed as the number of Ki-67^+ cells±standard error (SE) as determined by counting 10 random microscopic fields for three different tumor samples per treatment group.

[8] = tested on: Panc-28 tumors; test: Microvessel density (CD31) in Panc-28 tumors; format: in vivo, nude mice; conditions: CD31 staining
Text: A rat anti-mouse CD31 monoclonal antibody was used to determine the microvessel density in xenografts. The CD31 stained slides were observed under a Leica DM4000B fluorescence microscope (Leica Microsystems Inc, Bannockburn, Ill.) equipped with SPOT-RTKE digital camera (Diagnostic instruments, Sterling Heights, Mich.) and the images were acquired and stored using SPOT advanced software (Diagnostic instruments, Sterling Heights, Mich.). The stored images were processed using NIH ImageJ software. The vessel density in each image was estimated by setting a minimum threshold of 4 pixel^2. Setting a minimum threshold enables to avoid the background non-specific staining and to eliminate the fluorescence signal from single endothelial cell. Results were expressed as the mean number of vessels±SE per high power field (HPF, 100× magnification). A total of 20 random HPFs were examined and counted in four different tumor samples from each treatment group.

[9] = tested on: Panc-28 tumors; test: TUNNEL assay of apoptosis in Panc-28 tumors; format: in vivo, nude mice
Protocol: Terminal deoxynucleotidyl transferase mediated […] nick end labeling (TUNNEL) assay (Roche Molecular Biochemicals, Mannhein, Germany) of frozen sections to detect apoptotic cells was performed according to the manufacturer's protocol. The apoptotic fluorescence-positive cells were counted under a microscope and expressed as the percentage of total cells±SE. Ten fields in three tumors per treatment group were examined.

[10] = tested on: NF-κB; test: NF-κB activation by EMSA, Panc28 cells; format: cell-based, human; conditions: for effect on A23187-induced activation of NF-κB: Panc28
Protocol: (§3) To assess NF-κB activation, electrophoretic mobility shift assay (EMSA) was performed as described previously. Briefly, nuclear extracts prepared from cells (1×10^6/ml) were incubated with a ^32P end-labeled 45-mer double-stranded NF-κB oligonucleotide (15 μg of protein with 16 fmol of DNA) from the human immunodeficiency virus long terminal repeat, 5′-[…] […] CGCTG […] […]-3′ (boldface indicates NF-κB binding sites) (SEQ ID NO:17), for 30 minutes at 37° C., and the DNA-protein complex formed was separated from free oligonucleotide on 6.6% native polyacrylamide gels. A double-stranded mutated oligonucleotide, 5′-[…] […] CGCTG […] […]-3′ (SEQ ID NO:18), was used to examine the specificity of binding of NF-κB to the DNA. The specificity of binding was also examined using competition with the unlabeled and mutated oligonucleotides. For supershift assays, nuclear extracts were incubated with antibodies against either the p50 or the p65 subunit of NF-κB for 30 minutes at 37° C. before the complex was analyzed using EMSA.

[11] = tested on: NF-κB; test: NF-κB activation by EMSA, BxPc3 cells; format: cell-based, human; conditions: 1 μM or 2 μM, 24 hours
Protocol: as §3

[12] = tested on: NF-κB; test: NF-κB activation by EMSA, MCF-7 cells; format: cell-based, human; conditions: MCF-7 cells (lack TG2)
Protocol: as §3

[13] = tested on: NF-κB; test: NF-κB-dependent SEAP reporter gene assay, Panc28 cells; format: cell-based, human
Protocol: as §1

With TNF-α as the molecule, how does the SEAP reporter expression ([1]; TNF 1 nM, fold over non-transfected control) read?
Its SEAP reporter expression is 14 fold.

How did the IC50 [2] turn out when `Nc1ccn([C@@H]2O[C@H](CO)[C@@H](O)C2(F)F)c(=O)n1` [gemcitabine] was run?
The IC50 was 1000 nM.

What about the IC50 [3] of the same molecule?
Its IC50 is 100 nM.

What about the IC50 ([4]; BxPC-3 cells (TG2-deficient), 72 hours) of the same molecule?
The IC50 was 10 nM.

And the IC50 ([4]; BxPC-3 cells infected with TG2wt adenoviral construct, data not shown)?
Its IC50 is 100 nM.

And the metastasis score [5]?
Its metastasis score is “completely ineffective in inhibiting metastasis; also recorded: no decreases in the metastasis score”.

And the “pAkt (serine 473) in tumors” value [6]?
Its value is “no significant changes in NF-κB activity or pAkt levels”.

What about the Ki-67 staining [7] of the same molecule?
The Ki-67 staining was “high levels of Ki-67 staining”.

And the “mean blood vessel / microvascular density” value [8]?
The value was “significant decrease in the mean blood vessel density”.

What about the “apoptotic cells in tumors” value [9] of the same molecule?
Its value is “significant increases in the numbers of apoptotic cells”.

How did the inhibition at 50 µM ([10]; Homo sapiens, Panc28, 50 μM, 24 hours) turn out when `CN(C)c1cccc2c(S(=O)(=O)NCCCCCN)cccc12` [MDC, monodansylcadaverine] was run?
Its inhibition at 50 µM is roughly 60%.

And the “effect on A23187-induced activation of NF-κB” value [10]?
The value was “blocked A23187-induced activation”.

With `CNc1ccc2oc(C[C@H]3O[C@@]4(CC[C@H]3C)O[C@H]([C@H](C)C(=O)c3ccc[nH]3)[C@H](C)C[C@H]4C)nc2c1C(=O)O` [A23187] as the molecule, how does the “basal TG2 activity and constitutive NF-κB activation” value ([10]; Panc28 cells) read?
The value was “could be further induced”.

And the NF-κB activation [11]?
The NF-κB activation was “strong activation of NF-κB”.

And the NF-κB activation [12]?
The NF-κB activation was “failed to show an increase in NF-κB activation”.

What about the “A23187-induced SEAP activity” value [1] of the same molecule?
The value was “No basal or A23187-induced activity of SEAP”.

What about the “SEAP expression in response to A23187” value ([13]; Panc28, 1 µM for 24 hours) of the same molecule?
The value was “did not increase further”.

What does the source list for `NCCCCCNC(=O)CCCC[C@@H]1SC[C@@H]2NC(=O)N[C@@H]21` [BPA, 5-(biotinamido) pentylamine]?
inhibition at 1000 µM ([10]; Homo sapiens, Panc28, 1 mM for 24 hours, read-out: inhibition of constitutive activation of NF-κB): ~70%; effect on A23187-induced activation of NF-κB [10]: failed to further augment A23187-induced activation of NF-κB; inhibition of TNF-α-induced SEAP expression ([1]; BPA 1 mM): not by BPA; inhibition of SEAP expression ([13]; Panc28, P<0.002): significantly inhibited
